Results from PubChem BioAssay (NCI).
Values joined by “and” are separate entries in the source; they are usually repeats but may differ in a detail not shown here. Identical values can stand only once.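 Each compound was tested at five concentrations against cells in 96-well plates for 48 hours. The concentration for 50% growth inhibition is given as GI50. At the TGI there is no net growth.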

Assays:
Assay in all cases: DTP human tumour cell line panel, 48 h
UO-31 renal = tested on: UO-31 renal
MDA-MB-435 = tested on: MDA-MB-435
SN12C renal = tested on: SN12C renal
CCRF-CEM leukemia = tested on: CCRF-CEM leukemia
HOP-92 NSCLC = tested on: HOP-92 NSCLC
M14 melanoma = tested on: M14 melanoma
A549 NSCLC = tested on: A549 NSCLC
IGROV1 ovarian = tested on: IGROV1 ovarian
T-47D breast = tested on: T-47D breast
RXF 393 renal = tested on: RXF 393 renal

SMILES | GI50 (UO-31 renal) | TGI (UO-31 renal) | GI50 (MDA-MB-435) | TGI (MDA-MB-435) | GI50 (SN12C renal) | TGI (SN12C renal) | GI50 (CCRF-CEM leukemia) | TGI (CCRF-CEM leukemia) | GI50 (HOP-92 NSCLC) | TGI (HOP-92 NSCLC) | GI50 (M14 melanoma) | TGI (M14 melanoma) | GI50 (A549 NSCLC) | TGI (A549 NSCLC) | GI50 (IGROV1 ovarian) | TGI (IGROV1 ovarian) | GI50 (T-47D breast) | TGI (T-47D breast) | GI50 (RXF 393 renal) | TGI (RXF 393 renal)
O=C(NCCNc1nccc(-c2c(-c3ccc(F)cc3)nc3sccn23)n1)Nc1cccc(C(F)(F)F)c1 | 2940 nM | 16 µM | 3.12 µM | 11.4 µM | 6.42 µM | 22.7 µM | 3.14 µM | 30.1 µM | 4.59 µM | 33.3 µM | 8.73 µM | 21.8 µM | 5.51 µM | 24.5 µM | 4.59 µM | 20 µM | 2.15 µM | 8.48 µM | 1.99 µM | 6.05 µM
COc1cc2c3c(n(CCCNC(C)(C)CO)c(=O)c2cc1OC)-c1cc2c(cc1C3=O)OCO2 | 1960 nM | > 55.4 µM | 4.52 µM | > 75.5 µM | 0.157 µM | 2.65 µM | – | 1.58 µM | > 25.9 µM | > 53.1 µM | 0.754 µM | 19 µM | 1.5 µM | 23.9 µM | 1.7 µM | > 100 µM | 3.47 µM | 47.6 µM | 16.2 µM | > 68 µM
Nc1nc(N)c2cc(Sc3ccc(Cl)cc3)ccc2n1 | 2430 nM | 16.1 µM | 0.403 µM | 1.91 µM | 2.91 µM | 17.9 µM | 0.815 µM | 17.4 µM | 1.51 µM | 7 µM | 0.535 µM | 1.98 µM | 0.254 µM | 12.9 µM | 0.874 µM | 18.7 µM | 1.61 µM | 3.33 µM | 1.03 µM | 7.78 µM
NS(=O)(=O)c1ccc(N=Nc2c(O)[nH]c3cccc(CCc4ccncc4)c23)cc1 | > 25000 nM | > 25 µM | > 25 µM | > 25 µM | > 25 µM | > 25 µM | > 25 µM | > 25 µM | > 25 µM | > 25 µM | > 25 µM | > 25 µM | > 25 µM | > 25 µM | > 25 µM | > 25 µM | > 25 µM | > 25 µM | > 25 µM | > 25 µM
COc1cc(C)cc(C(=O)OCc2ccccc2)c1C1=C(Cl)C(=O)C(Cl)=CC1=O | – | > 10 µM | – | > 10 µM | – | > 10 µM | – | 4.76 µM | – | 9.92 µM | – | > 10 µM | – | > 10 µM | – | > 10 µM | – | > 10 µM | – | > 10 µM
COc1ccc2c(c1)OC(N)=C(C#N)C2c1ccc(F)c(F)c1 (stereo not drawn) | 648 nM | > 100 µM | 0.133 µM | 0.664 µM | 0.718 µM | > 70.6 µM | 0.409 µM | > 100 µM | 6.53 µM | 69.3 µM | 0.325 µM | > 100 µM | 0.706 µM | > 100 µM | 0.715 µM | > 100 µM | 0.334 µM | > 55.3 µM | 0.365 µM | 5.57 µM
O=P1(O)c2ccccc2CSCc2ccccc21 | – | > 100 µM | – | > 100 µM | – | > 100 µM | – | > 100 µM | – | > 100 µM | – | > 100 µM | – | > 100 µM | – | > 100 µM | – | > 100 µM | – | > 100 µM
CSc1nc(SC)c2cnn(-c3ccnc4cc(Cl)ccc34)c2n1 | > 100000 nM | > 100 µM | 10.7 µM | > 100 µM | 51 µM | > 100 µM | > 100 µM | > 100 µM | > 63.6 µM | > 100 µM | 34.8 µM | > 94.7 µM | > 85.7 µM | > 100 µM | 47.8 µM | > 100 µM | > 100 µM | > 100 µM | 14.2 µM | 48.6 µM
Cc1cccc2c1NC(=O)[C@@H](NC(=O)[C@H](CCC(F)(F)F)[C@H](CCC(F)(F)F)C(N)=O)N=C2c1cccc(F)c1 | > 100000 nM | > 100 µM | > 100 µM | > 100 µM | 28.4 µM | > 100 µM | > 100 µM | > 100 µM | 14.4 µM | 57.1 µM | 73.2 µM | > 100 µM | 36.6 µM | > 100 µM | 27.7 µM | > 100 µM | 34.5 µM | > 100 µM | 13.5 µM | 40.4 µM
CCCC(c1cc(C(C)(C)C)c(O)cc1C)c1cc(C(C)(C)C)c(O)cc1C | – | 11.2 µM | – | 7.18 µM | – | 3.81 µM | – | 6.88 µM | – | 22.5 µM | – | 4.51 µM | – | 9.78 µM | – | 14.6 µM | – | 8.92 µM | – | 4.56 µM
CN1CCN(C(=O)OCc2nc3c(N4CCOCC4)nc(-c4ccccc4)nc3n2C)CC1 | 377 nM | 1.8 µM | 1.06 µM | 2.39 µM | 0.814 µM | 2.12 µM | 0.321 µM | 1.57 µM | 0.765 µM | 2.24 µM | 1.07 µM | 2.44 µM | 1.68 µM | 4.13 µM | 0.632 µM | 2.03 µM | 1.53 µM | 4.51 µM | 0.687 µM | 1.98 µM
Nc1ncnc2occ(-c3ccc(NC(=O)Nc4cc(C(F)(F)F)ccc4F)cc3)c12 | 4720 nM and 1480 nM | 14.1 µM and 7.88 µM | 4.35 µM and 2.37 µM | 11.3 µM and 5.59 µM | 4 µM and 1.47 µM | 21.2 µM and 11.6 µM | 7.55 µM and 1.58 µM | 22.8 µM and > 25 µM | 3.98 µM and 3.4 µM | 12.1 µM and 11.5 µM | 5.86 µM and 2.54 µM | 21.4 µM and 7.11 µM | 6.44 µM and 3.16 µM | 18.8 µM and 11.5 µM | 3.82 µM and 1.27 µM | 14.1 µM and 7.18 µM | 6.42 µM and 3.5 µM | 16.9 µM and 10.9 µM | 2.95 µM and 1.11 µM | 7.06 µM and 3.92 µM
Cc1cc(S(=O)(=O)Nc2n[nH]c(-c3ccc(Cl)cc3)c2C#N)c(S)cc1Cl | > 100000 nM | > 100 µM | > 100 µM | > 100 µM | > 100 µM | > 100 µM | > 100 µM | > 100 µM | > 100 µM | > 100 µM | > 100 µM | > 100 µM | > 100 µM | > 100 µM | > 100 µM | > 100 µM | > 100 µM | > 100 µM | > 100 µM | > 100 µM
COc1c(O)cc2c(c1CC=C(C)C)OC(=O)c1c(cc(O)c(CC=C(C)C)c1O)O2 | 4220 nM | 7.79 µM | 4.11 µM | 7.94 µM | 3.67 µM | 7.37 µM | 7.63 µM | 25 µM | 4.08 µM | 7.78 µM | 4.22 µM | 8.5 µM | 4.26 µM | 8.28 µM | 4.14 µM | 7.91 µM | 4.48 µM | 8.72 µM | 4.02 µM | 7.75 µM
COc1ccc(/C=C/C(=O)c2ccc(B(O)O)cc2)cc1O | 16700 nM | > 92.8 µM | 2.11 µM | 5.5 µM | 20.1 µM | > 77.7 µM | 7.23 µM | 44.4 µM | 3.46 µM | 29.8 µM | 8.03 µM | 29.6 µM | 14.5 µM | > 76.7 µM | 12.5 µM | > 54.4 µM | 13.5 µM | 50.9 µM | 11.5 µM | 39.6 µM
N#CC1(C#N)C2C=CC(C3CC=CC32)C1(C#N)C#N (stereo not drawn) | 1070 nM | 3.67 µM and 1.85 µM | 9.78 µM | 18.8 µM | – | 18.4 µM | – | 3.43 µM | – | 14.8 µM | 8.72 µM | 3.74 µM and 16 µM | – | 21 µM | – | 16.5 µM | 2.78 µM | 8.65 µM and 13.2 µM | – | 8.29 µM and 13.4 µM
CCOC(=O)Nc1ccc2c3c(cccc13)-c1ccccc1-2 | 2590 nM | > 100 µM | 0.862 µM | 3.54 µM | 5.98 µM | > 100 µM | 7.85 µM | > 100 µM | > 100 µM | > 100 µM | 4.32 µM | > 100 µM | 6.03 µM | > 100 µM | 1.98 µM | > 100 µM | 2.57 µM | > 100 µM | 6.92 µM | > 100 µM
O=C(NCCCNc1cc(-c2cn(-c3ccccc3)nc2-c2cccc(O)c2)ccn1)c1ccc(F)cc1 | 1780 nM | 10.2 µM | 1.74 µM | 4.44 µM | 4.29 µM | 30.8 µM | 1.54 µM | > 100 µM | 2.13 µM | 7.65 µM | 1.85 µM | 4.28 µM | 3.65 µM | 20.8 µM | 4.22 µM | 24.9 µM | 1.14 µM | 5.11 µM | 1.63 µM | 4.63 µM
